Test results as given in US4735651A, “Novel phytotoxic and plant growth regulating oligopeptide” (The United States of America as represented by the …, priority 1986, dated 1988).

Legend:
[1] = test system: curly cress (Lepidium sativum) seedlings; assay: Root growth bioassay of germinating curly cress seedlings; type: in vivo; conditions: curly cress seedling assay (C), 10^-6 M
Procedure: (§1) Applicants' preferred embodiments of this invention comprises the incorporation of structural peptide backbone changes which increase conformational constraint, and vary the orientation of amino acid side chains when constrasted with naturally occurring amino acid sequences. […] Rooth growth inhibition/promotion was measured in germinating lettuce (Lactuca sativa) cv. Northern Lakes and curly cress (Lepidium sativum) seedling assays nominally used for screening herbicidal compounds and in a wheat coleoptile assay used for generally screening biological activity. Only compounds exerting measurable biological activities at 1×10^-6 M in concentration in the lettuce and cress assays and 1×10^-3 M in the wheat coleoptile are claimed.
(§2) Aliquots of tested oligopeptide compounds of the type Formulas I-V were dissolved in ethyl acetate. One milliliter aliquots of the samples were pipetted onto a […] filter disk, dried, and placed in a Petri dish. One mL of distilled water was pipetted onto the filter paper and 15 lettuce seeds were uniformly distributed on the surface of the filter paper and allowed to imbibe in the dark at 20° to 25° C. for 24 h. The samples were subsequently placed in a growth chamber under continuous light at 28° C. for 72 h, and the root lengths were measured.
(§3) During the course of these assays, visual assessment of seedling vigor was made in addition to root length measurements. […] Assessment of phytotoxicity was not confined to assessment of the root, but included any organ of the assay species.

[2] = test system: lettuce (Lactuca sativa) cv. Northern Lakes seedlings; assay: Root growth bioassay of germinating lettuce seedlings; type: in vivo; conditions: lettuce seedling assay (L), 10^-6 M
Procedure: as §1, §2, §3

[3] = test system: lettuce, potato, cucumber, spinach, radish, corn, tobacco; conditions: literature; cited from earlier work
[4] = test system: lettuce and cress seedlings; assay: Lettuce and curly cress seedling assays, visual assessment and overall activity (species not split); type: in vivo, Lactuca sativa; Lepidium sativum; set-up: key to Phytotoxicity: +: designated as phytotoxic if they exhibited either chlorosis and/or necrosis of tissues when compared with untreated control plants; conditions: for Root growth inhibitor or promoter activity (in words): 10^-6 M; for Phytotoxicity: visual assessment of chlorosis and/or necrosis, any organ; for Phytotoxic properties observed (in words): visual assessment of seedlings
Procedure: as §1, §2, §3

[5] = test system: susceptible maize hybrids; conditions: literature; cited from earlier work

COC(=O)CNC(=O)/C(=C/c1ccccc1)N(C)C(=O)[C@@H](NC(=O)OC(C)(C)C)C(C)C [Compound 12, Boc-Val-N(CH3)Δ^z Phe-Gly-OMe]
% Root Growth Inhibitor (inhibition) [1]: 85%

CCN(C(=O)[C@@H](CC(C)C)NC(=O)OC(C)(C)C)/C(=C\c1ccccc1)C(=O)NCC(=O)OC [Compound 7, Boc-D-Leu-N(C2 H5)Δ^z Phe-Gly-OMe]
% Root Growth Inhibitor (inhibition) [2]: 50% | % Root Growth Inhibitor (inhibition) [1]: 80%

CC(C)C[C@@H]1NC(=O)[C@H](C)N(C)C(=O)CNC(=O)/C(=C/c2ccccc2)N(C)C1=O [Compound 13, cyclo [L-Leucyl-N-methyl-(Z)-dehydrophenylalanyl-glycyl-N-methyl-L-alnyl]]
Chlorosis induction [3]: induces chlorosis in lettuce, potato, cucumber and spinach but not in radish, corn and some species of tobacco | Root growth inhibitor or promoter activity (in words) [4]: Not active as a inhibitor | Root growth inhibitor or promoter activity (in words) ([4]; listed as tentoxin): none of the plant growth inhibiting or promoting properties | Phytotoxicity [4]: + | Phytotoxic properties observed (in words) [4]: induces chlorosis in lettuce seedlings

C[C@@H]1NC(=O)[C@H]2CCCN2C(=O)[C@H](CCCCCC(=O)[C@@H]2CO2)NC(=O)[C@@H](C)NC1=O [HC toxin]
Root growth inhibition [5]: root growth inhibition of susceptible maize hybrids

COC(=O)CNC(=O)/C(=C/c1ccccc1)N(C)C(=O)[C@H](CC(C)C)NC(=O)OC(C)(C)C [Compound 8, Boc-Leu-N(CH3)Δ^z Phe-Gly-OMe]
% Root Growth Inhibitor (inhibition) [2]: 60% | % Root Growth Inhibitor (inhibition) [1]: 50%

Boc-N(CH3)-Ala-Leu-N(CH3)Δ^z Phe-Gly-OMe [Compound 5]
Root growth inhibitor or promoter activity (in words) [4]: active | Phytotoxicity [4]: + | Phytotoxic properties observed (in words) [4]: root growth inhibition leading to early mortality

COC(=O)CNC(=O)/C(=C/c1ccccc1)NC(=O)[C@@H](C)NC(=O)OC(C)(C)C [Compound 10, Boc-D-Ala-Δ^z Phe-Gly-OMe]
% Root Growth Inhibitor (inhibition) [2]: 40% | % Root Growth Inhibitor (inhibition) [1]: 20%
